According to EPA's ToxRefDB 2:

Experiments:
[1] = tested on: rat; conditions: Multigenerational reproductive toxicity study, sprague dawley, Oral, Gavage/Intubation, dose end: 2 generation, group: parental
[2] = tested on: mouse; conditions: Combined chronic toxicity/carcinogenicity; cd1; Inhalation; Whole-Body; dose end: 18 month; group: systemic; systemic / pathology microscopic / nose / [other] + systemic / pathology microscopic / nose / degeneration + systemic / pathology …
[3] = tested on: rabbit; conditions: Prenatal developmental toxicity study, new zealand white, Oral, Gavage/Intubation, dose end: 18 GD, group: maternal
[4] = tested on: rat; conditions: Prenatal developmental toxicity study, sprague dawley, Oral, Gavage/Intubation, dose end: 15 GD, group: maternal
[5] = tested on: rat; conditions: Prenatal developmental toxicity study, sprague dawley, Oral, Gavage/Intubation, dose end: 15 GD, group: maternal; remark: listed apart in the source
[6] = tested on: rat; conditions: Combined chronic toxicity/carcinogenicity; fischer; Inhalation; Whole-Body; dose end: 26 month; group: systemic; systemic / pathology microscopic / spleen / congestion + systemic / pathology microscopic / eye / degeneration + systemic / pathology …
[7] = tested on: rabbit; conditions: Prenatal developmental toxicity study, new zealand white, Oral, Gavage/Intubation, dose end: 18 GD, group: maternal; remark: listed apart in the source
[8] = tested on: rat; conditions: Neurotoxicity screening battery; sprague dawley; Oral; Gavage/Intubation; dose end: 13 week; group: cannot be grouped; systemic / hematology / [other] / [other] + systemic / hematology / heinz body / heinz body + systemic / hematology / leukocyte (wbc) count …
[9] = tested on: rat; conditions: Sub-acute repeat dose toxicity, fischer, Oral, Water, dose end: 14 day, group: systemic
[10] = tested on: mouse; conditions: Subchronic oral toxicity in rodents, b6c3f1, Water, dose end: 13 week, group: systemic
[11] = tested on: rat; conditions: Subchronic oral toxicity in rodents, fischer, Water, dose end: 13 week, group: systemic
[12] = tested on: mouse; conditions: Sub-acute repeat dose toxicity, b6c3f1, Oral, Water, dose end: 14 day, group: systemic
[13] = tested on: rat; conditions: Carcinogenicity, fischer, Oral, Feed, dose end: 104 week, group: systemic
[14] = tested on: mouse; conditions: Carcinogenicity, b6c3f1, Oral, Feed, dose end: 104 week, group: systemic
[15] = tested on: rabbit; conditions: Prenatal developmental toxicity study, new zealand white, Inhalation, Whole-Body, dose end: 18 GD, group: maternal
[16] = tested on: rat; conditions: Subchronic inhalation toxicity, fischer, Whole-Body, dose end: 13 week, group: systemic
[17] = tested on: rat; conditions: Prenatal developmental toxicity study, sprague dawley, Inhalation, Whole-Body, dose end: 15 GD, group: maternal
[18] = tested on: dog; conditions: Combined chronic toxicity/carcinogenicity, beagle, Oral, Feed, dose end: 24 month, group: systemic
[19] = tested on: rat; conditions: Combined chronic toxicity/carcinogenicity, sprague dawley, Oral, Feed, dose end: 2 year, group: systemic
[20] = tested on: rat; conditions: Subchronic oral toxicity in rodents, other, Feed, dose end: 13 week, group: systemic
[21] = tested on: rat; conditions: Multigenerational reproductive toxicity study, Sprague Dawley, Oral, Feed, dose end: 2 generation
[22] = tested on: rat; conditions: Carcinogenicity, fischer, Oral, Feed, dose end: 80 week, group: systemic
[23] = tested on: mouse; conditions: Carcinogenicity; b6c3f1; Oral; Feed; dose end: 80 week; group: systemic; systemic / pathology microscopic / liver / carcinoma + systemic / pathology microscopic / liver / neoplastic nodule + systemic / in life …
[24] = systemic / hematology / erythrocyte (rbc) count differential / erythrocyte (rbc) + systemic / hematology / hematocrit (hct) / hematocrit (…
[25] = systemic / pathology microscopic / liver / hematopoietic cell proliferation + systemic / pathology microscopic / liver / hemosiderosis + …
[26] = reproductive / reproductive performance / aborted / aborted + reproductive / reproductive performance / resorptions / resorptions + systemic…
[27] = systemic / hematology / methemoglobin / methemoglobin + systemic / hematology / reticulocyte / reticulocyte
[28] = systemic / hematology / methemoglobin / methemoglobin + systemic / hematology / reticulocyte / reticulocyte + systemic / in life observation…
[29] = systemic / in life observation / body weight / body weight + systemic / in life observation / body weight / body weight gain + systemic / in…
[30] = systemic / pathology gross / spleen / enlarged
[31] = systemic / in life observation / body weight / body weight
[32] = systemic / in life observation / body weight / body weight + systemic / in life observation / water consumption / water consumption + …
[33] = systemic / pathology microscopic / nose / degeneration + systemic / pathology microscopic / spleen / hematopoietic cell proliferation + …
[34] = systemic / hematology / erythrocyte (rbc) count differential / erythrocyte (rbc) + systemic / hematology / hemoglobin (hgb) / hemoglobin (…
[35] = systemic / in life observation / body weight / body weight + systemic / in life observation / water consumption / water consumption
[36] = systemic / in life observation / body weight / body weight + systemic / pathology microscopic / urinary bladder / hyperplasia
[37] = systemic / in life observation / body weight / body weight + systemic / pathology microscopic / urinary bladder / hyperplasia + systemic / …
[38] = systemic / in life observation / body weight / body weight + systemic / pathology microscopic / liver / hepatocellular carcinoma + systemic…
[39] = systemic / in life observation / body weight / body weight gain + systemic / in life observation / clinical signs / oral discharge + …
[40] = systemic / in life observation / food consumption / food consumption
[41] = systemic / organ weight / adrenal gland / absolute + systemic / organ weight / adrenal gland / relative to body weight + systemic / organ …
[42] = systemic / in life observation / body weight / body weight gain + systemic / in life observation / clinical signs / red or crusty deposits …
[43] = systemic / pathology microscopic / kidney / cellular alteration + systemic / pathology microscopic / kidney / pigmentation
[44] = systemic / pathology microscopic / kidney / cellular alteration + systemic / pathology microscopic / kidney / pigmentation + systemic / …
[45] = systemic / in life observation / body weight / body weight gain
[46] = group: offspring, systemic / in life observation / body weight / offspring (pup) weight + developmental / offspring survival late / [other] / [other] + …
[47] = group: parental, systemic / in life observation / body weight / body weight + systemic / organ weight / adrenal gland / absolute
[48] = systemic / in life observation / body weight / body weight + systemic / pathology microscopic / thyroid gland / hyperplasia
[49] = systemic / in life observation / body weight / body weight + systemic / pathology microscopic / thyroid gland / hyperplasia + systemic / in …

Work on CCC(C)=NO [2-Butanone oxime] yielded an LOAEL [1, 24] greater than 200 mg/kg/day, an NOAEL [1, 24] of no less than 200 mg/kg/day and an LEL [1, 25] of 10 mg/kg/day. It also gave an NEL [1, 25] of less than 10 mg/kg/day, an LEL [2] of 15 ppm and an LOAEL [2] greater than 375 ppm. The NEL [2] was less than 15 ppm, the NOAEL [2] was no less than 375 ppm and the LOAEL [3, 26] was greater than 80 mg/kg/day. The NOAEL [3, 26] was no less than 80 mg/kg/day, the LEL [3, 27] was 10 mg/kg/day and the NEL [3, 27] was less than 10 mg/kg/day. The LEL [4, 27] was 25 mg/kg/day, the NEL [4, 27] was less than 25 mg/kg/day and the LOAEL [4, 28] was greater than 400 mg/kg/day. For the same compound, the NOAEL [4, 28] was no less than 400 mg/kg/day, the LOAEL [5, 29] was greater than 600 mg/kg/day and the NOAEL [5, 29] was no less than 600 mg/kg/day. For the same compound, the LEL [5, 30] was 60 mg/kg/day, the NEL [5, 30] was less than 60 mg/kg/day and the LEL [6] was 15 ppm. It also gave an LOAEL [6] greater than 375 ppm, an NEL [6] of less than 15 ppm and an NOAEL [6] of no less than 375 ppm. The LOAEL [7, 26] was greater than 40 mg/kg/day, the NEL [7, 26] was 14 mg/kg/day and the NOAEL [7, 26] was no less than 40 mg/kg/day. For the same compound, the LEL ([7]; systemic / in life observation / body weight / body weight gain + systemic / in life observation / food consumption / food consumption) was 24 mg/kg/day, the LEL [8] was 40 mg/kg/day and the LOAEL [8] was greater than 400 mg/kg/day. For the same compound, the NEL [8] was less than 40 mg/kg/day, the NOAEL [8] was no less than 400 mg/kg/day and the LOAEL [9, 31] was 280 mg/kg/day. It also gave an NEL [9, 32] of 70 mg/kg/day, an NOAEL [9, 32] of 130 mg/kg/day and an LEL ([9]; systemic / in life observation / water consumption / water consumption + systemic / organ weight / spleen / absolute + systemic / organ …) of 130 mg/kg/day. The LOAEL ([10]; systemic / pathology microscopic / nose / degeneration + systemic / pathology microscopic / spleen / hematopoietic cell proliferation) was 755 mg/kg/day, the NEL [10, 33] was 110 mg/kg/day and the NOAEL [10, 33] was 515 mg/kg/day. The LEL ([10]; systemic / pathology microscopic / urinary bladder / hyperplasia) was 200 mg/kg/day, the LOAEL [11, 24] was 50 mg/kg/day and the NOAEL [11, 24] was 25 mg/kg/day. The LEL [11, 34] was 25 mg/kg/day, the NEL [11, 34] was less than 25 mg/kg/day and the LOAEL [12, 31] was 475 mg/kg/day. For the same compound, the LEL [12, 35] was 475 mg/kg/day, the NEL [12, 35] was 300 mg/kg/day and the NOAEL [12, 35] was 300 mg/kg/day.

COc1ccc(C)cc1N [2-Methoxy-5-methylaniline] showed an LOAEL [13, 36] of 250 mg/kg/day, an NOAEL [13, 36] of less than 250 mg/kg/day and an LEL [13, 37] of 250 mg/kg/day. For the same compound, the NEL [13, 37] was less than 250 mg/kg/day, the LOAEL [14, 31] was 330 mg/kg/day and the NOAEL [14, 31] was less than 330 mg/kg/day. The LEL [14, 38] was 330 mg/kg/day and the NEL [14, 38] was less than 330 mg/kg/day.

Compound CC(C)c1ccccc1 [Cumene] has an LOAEL [15, 39] greater than 2300 ppm, an NOAEL [15, 39] of no less than 2300 ppm and an LEL [15, 40] of 500 ppm. For the same compound, the NEL [15, 40] was less than 500 ppm, the NEL ([16]; systemic / in life observation / clinical signs / body temperature + systemic / in life observation / clinical signs / motor activity) was 100 ppm and the LEL ([16]; systemic / in life observation / clinical signs / motor activity + systemic / clinical chemistry / glucose / glucose + systemic / hematology…) was 500 ppm. For the same compound, the LOAEL [16, 41] was greater than 1200 ppm, the NOAEL [16, 41] was no less than 1200 ppm and the LOAEL [17, 42] was greater than 1200 ppm. It also gave an NEL [17, 42] of 100 ppm, an NOAEL [17, 42] of no less than 1200 ppm and an LEL [17, 40] of 500 ppm.

In the case of CNC(=O)ON=C(C)SC [Methomyl], the LEL [18, 43] is reported as 10 mg/kg/day, the LOAEL [18, 43] is reported as 10 mg/kg/day and the NEL [18, 44] is reported as 2.5 mg/kg/day. For the same compound, the NOAEL [18, 44] was 2.5 mg/kg/day, the NEL [19, 24] was 5 mg/kg/day and the LOAEL [19, 45] was 20 mg/kg/day. For the same compound, the NOAEL [19, 45] was 5 mg/kg/day, the LEL ([19]; systemic / in life observation / body weight / body weight gain + systemic / hematology / erythrocyte (rbc) count differential / erythrocyte…) was 20 mg/kg/day and the NEL [20, 45] was 2.5 mg/kg/day. For the same compound, the NOAEL [20, 45] was 2.5 mg/kg/day, the LOAEL ([20]; systemic / in life observation / body weight / body weight gain + systemic / pathology microscopic / bone marrow / hyperplasia) was 12.5 mg/kg/day and the LEL ([20]; systemic / in life observation / body weight / body weight gain + systemic / pathology microscopic / bone marrow / hyperplasia + systemic / …) was 12.5 mg/kg/day. The LOAEL ([21]; group: offspring, systemic / in life observation / body weight / offspring (pup) weight + developmental / offspring survival late / [other] / [other]) was 56.5 mg/kg/day, the LEL [21, 46] was 6.9 mg/kg/day and the NEL [21, 46] was less than 6.9 mg/kg/day. For the same compound, the NOAEL ([21]; group: offspring, systemic / in life observation / body weight / offspring (pup) weight + developmental / offspring survival late / lactation index / …) was 6.9 mg/kg/day, the LOAEL ([21]; group: parental, systemic / in life observation / body weight / body weight + systemic / in life observation / food consumption / food consumption) was 36.9 mg/kg/day and the NOAEL ([21]; group: parental, systemic / in life observation / body weight / body weight + systemic / in life observation / food consumption / food consumption + systemic…) was 4.6 mg/kg/day. The LEL [21, 47] was 6.9 mg/kg/day and the NEL [21, 47] was less than 6.9 mg/kg/day.

For COP(=O)(OC)O/C(=C/Cl)c1cc(Cl)c(Cl)cc1Cl [Tetrachlorovinphos], the LOAEL [22, 48] was 212 mg/kg/day, the NOAEL [22, 48] was less than 212 mg/kg/day and the LEL [22, 49] was 212 mg/kg/day. It also gave an NEL [22, 49] of less than 212 mg/kg/day, an LEL [23] of 1200 mg/kg/day and an LOAEL [23] greater than 2400 mg/kg/day. The NEL [23] was less than 1200 mg/kg/day and the NOAEL [23] was no less than 2400 mg/kg/day.
